Experimental data taken from patent US11492366B2, “Platinum compounds for binding guanine quadruplexes” (QUEEN'S UNIVERSITY AT KINGSTON, priority 2017, dated 2022).

What was measured:
Fc-mycT = assay: FRET melting assay, Fc-mycT; type: binding; details: DNA quadruplex; 0.2 μM binder, 0.1 μM oligonucleotide, K+ buffer; dichloride salts
Text: (§1) All samples tested are guanine quadruplexes except FdxT, which is in duplex form. Binding of G4s by the specified binders of Formula (1) was shown.
(§2) 96-Well plate FRET melting assays were adapted from literature protocols (A. De Rache, J.-L. Mergny, Biochimie (2015),115: 194-202) and conducted using a Strategene Mx3005P real-time PCR apparatus. G4 oligonucleotides labelled with 5′-FAM (6-carboxyfluorescein) and 3′-TAMRA (6-carboxytetramethylrhodamine) fluorophores were folded by rapid annealing in buffer (2 min. at 90° C. followed by cooling in ice). The FAM fluorescent tag was excited at 492 nm and its emission followed at 516 nm while the plates were incubated at 25° C. (5 min.) and then heated (1° C./min) to 95° C. Each condition was repeated in duplicate, and every experiment was repeated at least three times for reproducibility. Final oligonucleotide concentration ([…]) and buffer conditions (10 mM lithium cacodylate, pH 7.2 with either 10 mM potassium chloride/90 mM lithium chloride or 100 mM sodium chloride for DNA, or with 1 mM potassium chloride and 99 mM lithium chloride for RNA) were kept constant. T1/2 values were obtained as the temperature at which the normalized fluorescence emission is 0.5, with ΔT1/2=T1/2 (G4+ binder) — T1/2 (G4). […]

FdxT = assay: FRET melting assay, FdxT duplex; type: binding; details: DNA duplex; 0.2 μM binder, 0.1 μM oligonucleotide, K+ buffer; dichloride salts
Text: as §1, §2

F21T = assay: FRET melting assay, F21T; type: binding; details: DNA quadruplex; 0.2 μM binder, 0.1 μM oligonucleotide, K+ buffer; dichloride salts
Text: as §1, §2

FTBAT = assay: FRET melting assay, FTBAT; type: binding; details: DNA quadruplex; 0.2 μM binder, 0.1 μM oligonucleotide, K+ buffer; dichloride salts
Text: as §1, §2

FBom17T = assay: FRET melting assay, FBom17T; type: binding; details: DNA quadruplex; 0.2 μM binder, 0.1 μM oligonucleotide, K+ buffer; dichloride salts
Text: as §1, §2

F21CTAT = assay: FRET melting assay, F21CTAT; type: binding; details: DNA quadruplex; 0.2 μM binder, 0.1 μM oligonucleotide, K+ buffer; dichloride salts
Text: as §1, §2

F25cebT = assay: FRET melting assay, F25cebT; type: binding; details: DNA quadruplex; 0.2 μM binder, 0.1 μM oligonucleotide, K+ buffer; dichloride salts
Text: as §1, §2

22AG [1] = assay: FID titration (thiazole orange displacement) and data fitting; type: binding, human; details: K buffer, error 3σ × standard deviation
Procedure: Specifically, such titrations involve the addition of a binder to a thiazole orange (TO):22AG complex (0.25 or 0.5 μM DNA) in potassium buffer (10 mM lithium cacodylate buffer (pH 7.2) and 100 mM KCl). FIG. 4A provides an example of the blank-, baseline-, and volume-corrected fluorescence spectra obtained from the titration of Pt(2)2 with TO-22AG. […] Previous experiments indicate that the fluorophore binds to the quadruplex in a 1:1 TO:22AG stoichiometry, thus potentially leaving a second binding site unoccupied on the other terminal guanine tetrad of 22AG. […]
FID assays were adapted from literature protocols (Monchaud et al., Biochimie (2008) 90: 1207-23). […] In order to derive binding constants from FID data, fluorescence titrations monitoring the binding of TO to the quadruplex examined were first performed in triplicate. A TO-G4 binding constant was determined by data fitting using the HypSpec2014 software (see below). […]
Experiments were performed in a 1.5 mL cell at 25° C. […] Following a 3 minute equilibrium period after each addition, the fluorescence emission spectrum was recorded (λex=501 nm, λem=510-750 nm, bandwidth 5 nm, step size 1 nm). […]
A blank sample containing only buffer was measured in a 1.5 mL fluorescence cuvette to serve as reference. […]

F21RT = assay: FRET melting assay, F21RT; type: binding; details: RNA quadruplex; 0.2 μM binder, 0.1 μM oligonucleotide, K+ buffer (1 mM KCl/99 mM LiCl for RNA); dichloride salts
Text: as §1, §2

22AG [2] = assay: Circular dichroism titration, 22AG; type: binding, human; details: for Binder-induced conformational change of 22AG from hybrid to antiparallel (CD): K+ buffer (100 mM KCl), 0-5 equivalents binder
Procedure: Referring to FIGS. 3A and 3B, representative CD spectra from titrations where binders are added to A) 22AG and B) c-myc in potassium buffer (10 mM lithium cacodylate buffer (pH 7.2) and 100 mM KCl) are provided. Specifically, these graphs show changes in Δ A upon addition of Pt(11)2 (0-5 equivalents). Such experiments were performed for all novel binders of Formula (1) described in Table 1 with the exception of Pt(6)2.
The latter phenomenon is of particular interest in the case of the polymorphic quadruplex 22AG, which can adopt parallel, hybrid, and/or antiparallel topologies. […] The interactions of all novel binders of Formula (1) except Pt(6)2 (see Table 1) with 22AG and c-myc have been confirmed through similar CD titrations. In FIG. 3A, spectral changes such as the appearance of a peak at […] are consistent with a conformational change from a hybrid to an antiparallel 22AG quadruplex (Randazzo et al, Top. Curr. Chem. (2013) 330: 67-86).
500 μL Aliquots of 22AG and c-myc were folded at 3 μM by rapid annealing (2 min. at 90° C. followed by cooling in ice) in 10 mM lithium cacodylate (pH 7.2) and 100 mM potassium chloride. G4 binders were prepared in the same buffer at 37.5 or 75 μM, such that 0.5 equiv. binder was equivalent to 10 or 20 μL additions. Spectra at 0, 0.5, 1.0, 1.5, 2.0, 3.0, and 5.0 equivalents of binder added to G4 were acquired after 15 minutes of equilibration. Each spectrum was collected using a Jasco J-815 spectrometer with the following experimental parameters: wavelength range: 200-500 nm, data pitch: 1 nm, D.I.T.: 0.5 s, scan speed: 100 nm/min, accumulations: 3. Acquired data was then blank-corrected and baseline-corrected. Curves were smoothed by taking the average of the ellipticity data from the preceding 4 wavelengths as well as the current wavelength.

guanine quadruplexes = assay: FRET melting assays, overall statements; type: binding; details: 0.2 μM binder
Text: as §1, §2

| Structure (SMILES) | Average Binder-Induced Stabilization of Melting Temperature (ΔT1/2), Fc-mycT (Fc-mycT) [°C] | Average Binder-Induced Stabilization of Melting Temperature (ΔT1/2), FdxT (FdxT) [°C] | Average Binder-Induced Stabilization of Melting Temperature (ΔT1/2), F21T (F21T) [°C] | Average Binder-Induced Stabilization of Melting Temperature (ΔT1/2), FTBAT (FTBAT) [°C] | Average Binder-Induced Stabilization of Melting Temperature (ΔT1/2), FBom17T (FBom17T) [°C] | Average Binder-Induced Stabilization of Melting Temperature (ΔT1/2), F21CTAT (F21CTAT) [°C] | Average Binder-Induced Stabilization of Melting Temperature (ΔT1/2), F25cebT (F25cebT) [°C] | Average Log(β), 2:1 binder:G4 complex (22AG [1]) [M^−2] | Average Binder-Induced Stabilization of Melting Temperature (ΔT1/2), F21RT (F21RT) [°C] | Binder-induced conformational change of 22AG from hybrid to antiparallel (CD) (22AG [2]) | Preferentially bound topology of human telomeric 22AG (22AG [2]; in potassium) | Stabilization / binding of guanine quadruplexes (in words) (guanine quadruplexes) |
| --- | --- | --- | --- | --- | --- | --- | --- | --- | --- | --- | --- | --- |
| C[n+]1cc(NC(=O)c2ccc3ccc4ccc(C(=O)Nc5cc6ccccc6[n+](C)c5)nc4c3n2)cc2ccccc21 [Phen-DC3, reference compound] | 11.3 | 0.6 | 16.4 | 6.4 | 3.2 | 11.7 | >8.5 | 16.0 ± 1.3 | 13.3 |  |  |  |
| CC(C)(C)OC(=O)Nc1ccc2n[n+]3c(n2c1)-c1cccc[n+]1[Pt-2]31[n+]2ccccc2-c2n3cc(NC(=O)OC(C)(C)C)ccc3n[n+]21 [Pt(17)2] |  |  |  |  |  |  |  |  |  | no conformational changes are observed | preferentially bind to a hybrid topology |  |
| CC(=O)NCC(=O)NCC(=O)Nc1ccc2n[n+]3c(n2c1)-c1cccc[n+]1[Pt-2]31[n+]2ccccc2-c2n3cc(NC(=O)CNC(=O)CNC(C)=O)ccc3n[n+]21 [Pt(19)2] |  |  |  |  |  |  |  |  |  | to a lesser extent |  |  |
| C#Cc1ccc2[n+](c1)[Pt-2]1([n+]3cc(C#C)ccc3-c3n4ccccc4n[n+]31)[n+]1nc3ccccn3c1-2 [Pt(6)2] | 0.2 | 0.4 | 0.9 | 1.8 | 0.7 | 1.9 | 0.9 |  | 4.5 |  |  | binding was minimal |
| CC(=O)NCC(=O)Nc1ccc2n[n+]3c(n2c1)-c1cccc[n+]1[Pt-2]31[n+]2ccccc2-c2n3cc(NC(=O)CNC(C)=O)ccc3n[n+]21 [Pt(18)2] |  |  |  |  |  |  |  |  |  | to a lesser extent |  |  |
